# Results as given in patent US20240376094A2, “SELECTIVE BCL-XL PROTAC COMPOUNDS AND METHODS OF USE” (Les Laboratoires Servier, priority 2021, published 2024).
# Read-outs that look alike come from different tables or passages of the source.
# Assays:
# Assay type in all cases: cell-based
# [1] = system: EBC-1 lung cancer cell line; assay: EBC-1 cell proliferation, CellTiter-Glo assay; conditions: Ebc-1 cell viability, CTG assay, 5 days of treatment, read-out: CTG 5 day Ebc1 GI50
# Procedure: (§1) The ability of the BCL-xL degrader low molecular weight compounds to inhibit cell proliferation and survival was assessed using the Promega CellTiter-Glo® proliferation assay on the EBC-1 lung cancer cell line (RCB1965, obtained from RIKEN.) The cells were cultured in media that is optimal for their growth at 5% CO2, 37° C. in a tissue culture incubator. Prior to seeding for the proliferation assay, the cells were split at least 2 days before the assay to ensure optimal growth density. On the day of seeding, cells were lifted off tissue culture flasks using 0.25% trypsin. Cell viability and cell density were determined using a cell counter (Vi-Cell XR Cell Viability Analyzer, Beckman Coulter). Cells with higher than 85% viability were seeded in white clear bottom 384-well plates (Greiner cat #781098) at a density of 1000 cells per well in 50 μL of standard growth media. Plates were incubated at 37° C. overnight in a tissue culture incubator.
# The BCL-xL degrader low molecular weight compounds were prepared to desired concentrations. A series of 10 dilutions were made for each prepared compound. The prepared compounds were then added to the cells resulting in final concentrations of 0.508 nM-10 μM. An acoustic transfer device (Echo555, Beckman Coulter) was used to add the compounds to the cells. Each treatment was tested in triplicate assay plates. Plates were incubated at 37° C. overnight or for 5 days in a tissue culture incubator. The ability of the compounds to inhibit cell proliferation and survival was assessed using the Promega CellTiter-Glo® proliferation assay. Plates were incubated at room temperature for 20 minutes to stabilize luminescent signals prior to reading using a multimode plate reader (PHERAstar FSX Microplate Reader, BMG Labtech).
# To evaluate the effect of the compound treatments, luminescent counts of untreated cells were taken the day after seeding (Day 0 readings), and after 5 days of treatment (Day 5 readings). The Day 5 readings of the untreated cells were compared to the Day 0 readings. Assays with at least one cell doubling during the incubation period were considered valid. To evaluate the effect of the drug treatments, luminescent counts from wells containing untreated cells (100% viability) were used to normalize treated samples. The concentrations of treatment required to inhibit 50% of cell growth or survival ([…]) were calculated using a four parameter logistic regression equation.
# [2] = target: T1, HiBiT-tagged BCL-xL (Homo sapiens, UniProt Q07817); assay: NCI-H1650 BCL-xL protein levels, Nano-Glo HiBiT Lytic Detection; conditions: NCI-H1650 expressing HiBiT-tagged BCL-xL, overnight incubation, read-out: Bcl-xl HIBIT NCIH1650 DC50
# T1 construct: expressed in transfected cells; host or cells: NCI-H1650 (ATCC No. CRL-5883), engineered HiBiT cell line
# Procedure: as §1, with “degrade BCL-xL protein” for “inhibit cell proliferation and survival”, “Nano-Glo® HiBiT Lytic Detection System. The NCI-H1650 (ATCC No. CRL-5883) was engineered to express HiBiT-tagged BCL-xL. The NCI-H1650 HiBiT” for “CellTiter-Glo® proliferation assay on the EBC-1 lung cancer”, “was” for “(RCB1965, obtained from RIKEN.) The cells were”, “protein level” for “proliferation”, “5000” for “1000”, “30” for “50”
# The BCL-xL degrader low molecular weight compounds were prepared to desired concentrations. A series of 10 dilutions were made for each prepared compound. The prepared compounds were then added to the cells resulting in final concentrations of 0.508 nM-10 μM. An acoustic transfer device (Echo555, Beckman Coulter) was used to add the compounds to the cells. Each treatment was tested in triplicate assay plates. Plates were incubated at 37° C. overnight in a tissue culture incubator.
# BCL-xL degradation was assessed through the addition of 30 μL of Nano-Glo® HiBiT Lytic Reagent (Promega, cat #N3040), a reagent which lyses cells and contains a furimazine substrate and the large subunit (LgBiT) used in NanoLuc® Binary Technology. The LgBiT subunit having high affinity to a HiBiT-tagged protein will bind HiBiT, if present, resulting in complex formation of a luminescent NanoBiT® enzyme. This reaction will emit a luminescent signal proportional to the amount of HiBiT-tagged BCL-xL present in the cell lysate. Plates were incubated at room temperature for 20 minutes to stabilize luminescent signals prior to reading using a luminescence reader (PHERAstar FSX Microplate Reader, BMG Labtech).
# To evaluate the effect of the drug treatments, luminescent counts from wells containing untreated cells (100% HiBiT-tagged BCL-xL) were used to normalize treated samples. The concentrations of treatment required to inhibit 50% were calculated using a four parameter logistic regression equation.
# [3] = system: MOLT-4 cells; assay: MOLT-4 cell viability, CTG assay; conditions: Homo sapiens, MOLT-4, 48 h
# Procedure, shortened: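 Viability read as total ATP luminescence (CTG) after 48 h compound treatment, 11 points at 5-fold spacing in triplicate, cells in RPMI 1640/10% FBS. IC50 is the concentration halving signal relative to control, four-parameter fit, averaged over at least 2 experiments.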
# [4] = target: T2, Bcl-xL (Homo sapiens, UniProt Q07817); assay: HCT116 Bcl-xL degradation, capillary-based immunoassay (WES); conditions: HCT116, 24 h, 9-point serial dilution
# T2 construct: Measured levels of Bcl-xL protein of HCT116 cells treated with the tested compounds; host or cells: HCT116
# Procedure, shortened: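 Bcl-xL protein level by capillary WES immunoassay in HCT116 lysates, as % of untreated after cofilin normalization. Compound exposure was 24 h at 10 and 100 nM and/or a 9-point series, in quadruplicate. Four-parameter fitting gave the DC50.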
# T2 sequence (Q07817 whole entry): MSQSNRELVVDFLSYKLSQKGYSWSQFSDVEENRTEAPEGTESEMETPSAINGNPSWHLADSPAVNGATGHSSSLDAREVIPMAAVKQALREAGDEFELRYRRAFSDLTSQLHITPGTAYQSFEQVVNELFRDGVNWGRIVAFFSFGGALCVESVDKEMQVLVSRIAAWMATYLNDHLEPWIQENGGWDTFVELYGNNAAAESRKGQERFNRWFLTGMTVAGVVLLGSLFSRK
# T1 sequence (Q07817 whole entry): as above
Structure (SMILES),"GI50 ([1]; Homo sapiens, 120 h) [nM]",DC50 [2] [nM],IC50 [3] [nM],DC50 [4] [nM],GI50 [1] [nM]
"Cc1ncsc1-c1ccc([C@H](C)NC(=O)[C@@H]2C[C@@H](O)CN2C(=O)[C@@H](NC(=O)CCCCCCCCCCCCCN(C)CCOC23CC4(C)CC(C)(CC(Cn5ncc(-c6ccc(N7CCCc8c7nnc(Nc7nc9ccccc9s7)c8C)nc6C(=O)NC(C)C)c5C)(C4)C2)C3)C(C)(C)C)cc1 [Example 157, 6-[3-(1,3-benzothiazol-2-ylamino)-4-methyl-6,7-dihydro-5H-pyrido[2,3-c]pyridazin-8-yl]-3-[1-[[3-[2-[[14-[[(1S)-1-[(2S,4R)-4-hydroxy-2-[[(1S)-1-[4-(4-methylthiazol-5-yl)phenyl]ethyl]carbamoyl]pyrrolidine-1-carbonyl]-2,2-dimethyl-propyl]amino]-14-oxo-tetradecyl]-methyl-amino]ethoxy]-5,7-dimethyl-1-adamantyl]methyl]-5-methyl-pyrazol-4-yl]-N-isopropyl-pyridine-2-carboxamide]",,,7.62,18.8,
"Cc1ncsc1-c1ccc([C@H](C)NC(=O)[C@@H]2C[C@@H](O)CN2C(=O)[C@@H](NC(=O)CCOCCOCCNC(=O)c2nc(N3CCCc4c3nnc(Nc3nc5ccccc5s3)c4C)ccc2-c2cnn(CC34CC5(OCCN6CCCC6)C[C@](C)(C3)C[C@](C)(C4)C5)c2C)C(C)(C)C)cc1 [Example 158, 6-(3-(benzo[d]thiazol-2-ylamino)-4-methyl-6,7-dihydropyrido[2,3-c]pyridazin-8(5H)-yl)-3-(1-(((1r,3R,5S,7s)-3,5-dimethyl-7-(2-(pyrrolidin-1-yl)ethoxy)adamantan-1-yl)methyl)-5-methyl-1H-pyrazol-4-yl)-N-(2-(2-(3-(((S)-1-((2S,4R)-4-hydroxy-2-(((S)-1-(4-(4-methylthiazol-5-yl)phenyl)ethyl)carbamoyl)pyrrolidin-1-yl)-3,3-dimethyl-1-oxobutan-2-yl)amino)-3-oxopropoxy)ethoxy)ethyl)picolinamide]",,> 1670,,,10
"Cc1ncsc1-c1ccc([C@H](C)NC(=O)[C@@H]2C[C@@H](O)CN2C(=O)[C@@H](NC(=O)CCOCCOCCOCCNC(=O)c2nc(N3CCCc4c3nnc(Nc3nc5ccccc5s3)c4C)ccc2-c2cnn(CC34CC5(C)CC(C)(C3)CC(OCCN3CCCC3)(C5)C4)c2C)C(C)(C)C)cc1 [Example 159, 6-(3-(benzo[d]thiazol-2-ylamino)-4-methyl-6,7-dihydropyrido[2,3-c]pyridazin-8(5H)-yl)-3-(1-(((1r,3R,5S,7s)-3,5-dimethyl-7-(2-(pyrrolidin-1-yl)ethoxy)adamantan-1-yl)methyl)-5-methyl-1H-pyrazol-4-yl)-N—((S)-14-((2S,4R)-4-hydroxy-2-(((S)-1-(4-(4-methylthiazol-5-yl)phenyl)ethyl)carbamoyl)pyrrolidine-1-carbonyl)-15,15-dimethyl-12-oxo-3,6,9-trioxa-13-azahexadecyl)picolinamide]",8,> 1670,,,
"Cc1ncsc1-c1ccc([C@H](C)NC(=O)[C@@H]2C[C@@H](O)CN2C(=O)[C@@H](NC(=O)CCOCCOCCN(C)CCOC23CC4(C)CC(C)(CC(Cn5ncc(-c6ccc(N7CCCc8c7nnc(Nc7nc9ccccc9s7)c8C)nc6C(=O)O)c5C)(C4)C2)C3)C(C)(C)C)cc1 [Example 173, 6-[3-(1,3-benzothiazol-2-ylamino)-4-methyl-6,7-dihydro-5H-pyrido[2,3-c]pyridazin-8-yl]-3-[1-[[3-[2-[2-[2-[3-[[(1S)-1-[(2S,4R)-4-hydroxy-2-[[(1S)-1-[4-(4-methylthiazol-5-yl)phenyl]ethyl]carbamoyl]pyrrolidine-1-carbonyl]-2,2-dimethyl-propyl]amino]-3-oxo-propoxy]ethoxy]ethyl-methyl-amino]ethoxy]-5,7-dimethyl-1-adamantyl]methyl]-5-methyl-pyrazol-4-yl]pyridine-2-carboxylic acid]",,,35.6,> 316,
"Cc1c(Nc2nc3ccccc3s2)nnc2c1CCCN2c1nc(C(=O)O)c(CCCOc2ccc(C#CCN3CCN(C(=O)CCCC(=O)NCCOCCNC(=O)COc4cccc5c4C(=O)N(C4CCC(=O)NC4=O)C5=O)CC3)cc2F)s1 (centres unmarked) [Example 174, 2-[3-(1,3-benzothiazol-2-ylamino)-4-methyl-6,7-dihydro-5H-pyrido[2,3-c]pyridazin-8-yl]-5-[3-[4-[3-[4-[5-[2-[2-[[2-[2-(2,6-dioxo-3-piperidyl)-1,3-dioxo-isoindolin-4-yl]oxyacetyl]amino]ethoxy]ethylamino]-5-oxo-pentanoyl]piperazin-1-yl]prop-1-ynyl]-2-fluoro-phenoxy]propyl]thiazole-4-carboxylic acid]",,,26,> 316,

# Further lines, with some results ahead:
"GI50 ([1]; Homo sapiens, 120 h) [nM]",DC50 [2] [nM],IC50 [3] [nM],DC50 [4] [nM],Structure (SMILES),GI50 [1] [nM]
462,33,,,"Cc1cc(N(CCCCN(C)C(=O)CCCCCCCCCCCCSC(C)(C)[C@H](NC(=O)C2(F)CC2)C(=O)N2C[C@H](O)C[C@H]2C(=O)NCc2ccc(-c3scnc3C)cc2)c2ccc(-c3cnn(CC45CC6(C)CC(C)(C4)CC(OCCN(C)C)(C6)C5)c3C)c(C(=O)O)n2)nnc1Nc1nc2ccccc2s1 [Example 127, 6-[[6-(1,3-benzothiazol-2-ylamino)-5-methyl-pyridazin-3-yl]-[4-[13-[(2R)-2-[(1-fluorocyclopropanecarbonyl)amino]-3-[(2S,4R)-4-hydroxy-2-[[4-(4-methylthiazol-5-yl)phenyl]methylcarbamoyl]pyrrolidin-1-yl]-1,1-dimethyl-3-oxo-propyl]sulfanyltridecanoyl-methyl-amino]butyl]amino]-3-[1-[[3-[2-(dimethylamino)ethoxy]-5,7-dimethyl-1-adamantyl]methyl]-5-methyl-pyrazol-4-yl]pyridine-2-carboxylic acid]",
,,5.34,> 316,"Cc1c(Nc2nc3ccccc3s2)nnc2c1CCCN2c1ccc(-c2cnn(CC34CC5(C)CC(C)(C3)CC(OCCN(C)CCCCCCCCCCCCCCCCOc3ccc6c(c3)C(=O)N(C3CCC(=O)NC3=O)C6=O)(C5)C4)c2C)c(C(=O)O)n1 (centres unmarked) [Example 147, 6-[3-(1,3-benzothiazol-2-ylamino)-4-methyl-6,7-dihydro-5H-pyrido[2,3-c]pyridazin-8-yl]-3-[1-[[3-[2-[16-[2-(2,6-dioxo-3-piperidyl)-1,3-dioxo-isoindolin-5-yl]oxyhexadecyl-methyl-amino]ethoxy]-5,7-dimethyl-1-adamantyl]methyl]-5-methyl-pyrazol-4-yl]pyridine-2-carboxylic acid]",
